Results reported in PubChem BioAssay (NCI).
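Where inhibition never reached the appropriate level, the endpoint shown equals the highest concentration tested. Otherwise, values were interpolated linearly from a five-concentration, 48-hour dose response in 96-well plates. At the GI50, growth is halved. Definition used: TGI = concentration required for complete inhibition of growth.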

Tests used:
Test in all cases: NCI tumour cell line growth inhibition, 48 h; in the data active = GI50 below about 0.43 µM; inactive = the rest
[1] = test system: 786-0 renal
[2] = test system: A549 NSCLC
[3] = test system: ACHN renal
[4] = test system: CAKI-1 renal
[5] = test system: CCRF-CEM leukemia
[6] = test system: COLO 205 colon
[7] = test system: DLD-1 colon
[8] = test system: DMS 114 small cell lung
[9] = test system: DMS 273 small cell lung
[10] = test system: EKVX NSCLC
[11] = test system: HCT-116 colon
[12] = test system: HCT-15 colon
[13] = test system: HL-60(TB) leukemia
[14] = test system: HOP-18 NSCLC
[15] = test system: HOP-62 NSCLC
[16] = test system: HOP-92 NSCLC
[17] = test system: HT29 colon
[18] = test system: IGROV1 ovarian
[19] = test system: K-562 leukemia
[20] = test system: KM20L2 colon
[21] = test system: LOX IMVI melanoma
[22] = test system: LXFL 529 NSCLC
[23] = test system: M14 melanoma
[24] = test system: M19-MEL melanoma
[25] = test system: MOLT-4 leukemia
[26] = test system: NCI-H23 lung
[27] = test system: NCI-H460 lung
[28] = test system: NCI-H522 lung
[29] = test system: OVCAR-8 ovarian
[30] = test system: RPMI-8226 leukemia
[31] = test system: RXF 393 renal
[32] = test system: SF-268 CNS
[33] = test system: SF-539 CNS
[34] = test system: SK-MEL-28 melanoma
[35] = test system: SK-MEL-5 melanoma
[36] = test system: SK-OV-3 ovarian
[37] = test system: SN12C renal
[38] = test system: SNB-19 CNS
[39] = test system: SW-620 colon
[40] = test system: TK-10 renal
[41] = test system: U251 CNS
[42] = test system: UACC-62 melanoma
[43] = test system: UO-31 renal
[44] = test system: XF 498 CNS
[45] = test system: HCC-2998 colon
[46] = test system: KM12 colon
[47] = test system: MALME-3M melanoma
[48] = test system: NCI-H226 lung
[49] = test system: OVCAR-3 ovarian
[50] = test system: OVCAR-4 ovarian
[51] = test system: OVCAR-5 ovarian
[52] = test system: SF-295 CNS
[53] = test system: SK-MEL-2 melanoma
[54] = test system: SNB-75 CNS
[55] = test system: SNB-78 CNS
[56] = test system: SR leukemia
[57] = test system: UACC-257 melanoma
[58] = test system: A498 renal

COc1ccc(/C=C/c2onc3c(=O)n(C)nc(-c4ccccc4)c23)cc1
80.5 µM: TGI [16]
82.2 µM: TGI [4]
> 100 µM: TGI [1] | TGI [2] | TGI [3] | TGI [5] | TGI [6] | TGI [7] | TGI [8] | TGI [9] | TGI [10] | TGI [11] | TGI [12] | TGI [13] | TGI [14] | TGI [15] | TGI [17] | TGI [18] | TGI [19] | TGI [20] | TGI [21] | TGI [22] | TGI [23] | TGI [24] | TGI [25] | TGI [26] | TGI [27] | TGI [28] | TGI [29] | TGI [30] | TGI [31] | TGI [32] | TGI [33] | TGI [34] | TGI [35] | TGI [36] | TGI [37] | TGI [38] | TGI [39] | TGI [40] | TGI [41] | TGI [42] | TGI [43] | TGI [44]

CCOc1ccc(N(CC(=O)N2CC(=O)Nc3cc(C)c(C)cc32)C(C)=O)cc1
> 100 µM: TGI [1] | TGI [2] | TGI [3] | TGI [4] | TGI [5] | TGI [6] | TGI [7] | TGI [9] | TGI [10] | TGI [45] | TGI [11] | TGI [12] | TGI [13] | TGI [14] | TGI [15] | TGI [16] | TGI [17] | TGI [19] | TGI [46] | TGI [20] | TGI [21] | TGI [22] | TGI [23] | TGI [24] | TGI [47] | TGI [25] | TGI [48] | TGI [26] | TGI [27] | TGI [28] | TGI [49] | TGI [50] | TGI [51] | TGI [29] | TGI [30] | TGI [31] | TGI [32] | TGI [52] | TGI [33] | TGI [53] | TGI [34] | TGI [35] | TGI [36] | TGI [37] | TGI [38] | TGI [54] | TGI [55] | TGI [56] | TGI [39] | TGI [40] | TGI [41] | TGI [57] | TGI [42] | TGI [43] | TGI [44]

c1cc[c]([Ge]([O]c2cccc3cccnc23)([c]2ccccc2)[c]2ccccc2)cc1
6.16 µM: TGI [45]
25.5 µM: TGI [16]
10.3 µM: TGI [18]
25.6 µM: TGI [15]
5.09 µM: TGI [46]
25.7 µM: TGI [58]
13.4 µM: TGI [41]
5.06 µM: TGI [8]
17.5 µM: TGI [23]
20.3 µM: TGI [40]
12.4 µM: TGI [9] | TGI [12]
23.7 µM: TGI [43]
12.1 µM: TGI [24]
20.8 µM: TGI [3]
6.77 µM: TGI [30]
13.1 µM: TGI [50] | TGI [54]
17.7 µM: TGI [55]
12.2 µM: TGI [27]
23.8 µM: TGI [52]
5.49 µM: TGI [31]
23 µM: TGI [48]
7.46 µM: TGI [39]
11.7 µM: TGI [53]
8.16 µM: TGI [26]
28.9 µM: TGI [4]
10.6 µM: TGI [29]
14.3 µM: TGI [34]
29.5 µM: TGI [51]
13.2 µM: TGI [21]
8.37 µM: TGI [14]
12.7 µM: TGI [11]
15 µM: TGI [32]
5.27 µM: TGI [22]
14.9 µM: TGI [6]
10.8 µM: TGI [17]
6.82 µM: TGI [49]
11.3 µM: TGI [7] | TGI [33]
16.5 µM: TGI [37]
15.7 µM: TGI [1]
8.56 µM: TGI [36]
14.5 µM: TGI [57]
12.9 µM: TGI [10]
19.5 µM: TGI [38]
22.4 µM: TGI [47]
16.4 µM: TGI [42]
21.7 µM: TGI [2]
5.97 µM: TGI [20]
3.74 µM: TGI [28]
inactive: GI50 [1] 4.7 µM | GI50 [58] 13 µM | GI50 [2] 5.34 µM | GI50 [3] 8.83 µM | GI50 [4] 10.8 µM | GI50 [6] 4.8 µM | GI50 [7] 3.22 µM | GI50 [8] 2.32 µM | GI50 [9] 3.46 µM | GI50 [10] 3.42 µM | GI50 [45] 2.54 µM | GI50 [11] 3.41 µM | GI50 [12] 3.56 µM | GI50 [14] 1.26 µM | GI50 [15] 12.7 µM | GI50 [16] 12.4 µM | GI50 [17] 3.8 µM | GI50 [18] 3.1 µM | GI50 [46] 1.95 µM | GI50 [20] 2.59 µM | GI50 [21] 3.92 µM | GI50 [22] 2.31 µM | GI50 [23] 5.63 µM | GI50 [24] 3.46 µM | GI50 [47] 10.4 µM | GI50 [48] 6.33 µM | GI50 [26] 2.96 µM | GI50 [27] 3.37 µM | GI50 [28] 1.9 µM | GI50 [49] 2.55 µM | GI50 [50] 3.11 µM | GI50 [51] 15.9 µM | GI50 [29] 3.25 µM | GI50 [30] 2.29 µM | GI50 [31] 1.88 µM | GI50 [32] 3.55 µM | GI50 [52] 11.2 µM | GI50 [33] 3.36 µM | GI50 [53] 2.59 µM | GI50 [34] 3.56 µM | GI50 [36] 3.3 µM | GI50 [37] 4.52 µM | GI50 [38] 7.15 µM | GI50 [54] 3.5 µM | GI50 [55] 4.34 µM | GI50 [39] 3.02 µM | GI50 [40] 7.36 µM | GI50 [41] 3.83 µM | GI50 [57] 3.94 µM | GI50 [42] 4.6 µM | GI50 [43] 11.5 µM
